One assay has as its system LRRK2. Conditions: 2011, read-out: IC50 in vitro LRRK2, published, cited from earlier work.
In a further assay the target is T1, LRRK2 phospho-Ser935 (Homo sapiens, UniProt Q5S007).
T1 construct: expressed in transfected cells
In words: Cellular LRRK2 phosphoserine 935 dephosphorylation spotblot assay in SH-SY5Y cells stably expressing 3xFlag-LRRK2. The format is cell-based. The note with it: for Phosphorylation level relative to solvent (%) (cellular pS935 assay): @ 5 μM for 2 h, SH-SY5Y stably expressing LRRK2, pS935/total LRRK2; for Cellular pS935 (% @ 5 μM): pS935 level as % of control, 5 μM for 2 h.

The target in assay [1] is T2, full length LRRK2 protein (Homo sapiens, UniProt Q5S007).
T2 construct: compounds were tested in triplicate with full length LRRK2 protein; made in house
Kind of assay: In vitro LRRKtide kinase assay with full length recombinant LRRK2, dose-response (IC50/pIC50). It counts as biochemical.

In assay [2] the test system is LRRK2 pS935. Further details: method as in Hermanson et al., 2012. The note with it: ref Hermanson et al., 2012; read-out: IC50 pS935 levels, time-resolved FRET; cited from earlier work.
Assay [3] deals with LRRK2 pS935. Further details: method as in Delbroek et al., 2013. The note with it: ref Delbroek et al., 2013; read-out: IC50 pS935 levels, ELISA; cited from earlier work. A general note: An ELISA detects its analyte on a solid surface through an enzyme-linked reagent.
The test system of assay [4] is LRRK2 pS935. Further details: method as in Dzamko et al., 2010; Deng et al., 2011. Conditions: ref Dzamko et al., 2010; Deng et al., 2011; read-out: IC50 pS935 levels, western blot; cited from earlier work. For orientation: Immunoblotting shows a protein as a band on a membrane.
The target of assay [5] is T3, GST-tagged truncated LRRK2 containing residues 970 to 2527 (Homo sapiens, UniProt Q5S007).
T3 construct: GST-tagged truncated LRRK2 containing residues 970 to 2527 (Life Technologies); purchased Life Technologies
Kind of assay: In vitro LRRKtide peptide-substrate kinase assay, single dose testing (10 μM). The note with it: LRRKtide assay @ 10 μM inhibitor; GST-LRRK2 970-2527; 10 μM ATP; mean, N = 3; solvent control = 100%. It counts as biochemical.

Setting [6] is: SH-SY5Y cells with stable expression of LRRK2.
Where [7] appears, read: LRRKtide phosphorylation, dose-response.
The mark [8] stands for this setting: LRRKtide phosphorylation, dose-response, read-out: IC50 in vitro (lrrktide).
[9] abbreviates: pS935 dephosphorylation, SH-SY5Y cells with stable expression of LRRK2.
Setting [10] is: pS935 dephosphorylation, SH-SY5Y cells with stable expression of LRRK2, read-out: IC50 cellular (pS935).

Where two headings read alike, the source gives them in different places. Some results are limits rather than exact numbers.

Usually IC50 stands for the midpoint of a concentration-inhibition curve.

T3 sequence (Q5S007 970-2527): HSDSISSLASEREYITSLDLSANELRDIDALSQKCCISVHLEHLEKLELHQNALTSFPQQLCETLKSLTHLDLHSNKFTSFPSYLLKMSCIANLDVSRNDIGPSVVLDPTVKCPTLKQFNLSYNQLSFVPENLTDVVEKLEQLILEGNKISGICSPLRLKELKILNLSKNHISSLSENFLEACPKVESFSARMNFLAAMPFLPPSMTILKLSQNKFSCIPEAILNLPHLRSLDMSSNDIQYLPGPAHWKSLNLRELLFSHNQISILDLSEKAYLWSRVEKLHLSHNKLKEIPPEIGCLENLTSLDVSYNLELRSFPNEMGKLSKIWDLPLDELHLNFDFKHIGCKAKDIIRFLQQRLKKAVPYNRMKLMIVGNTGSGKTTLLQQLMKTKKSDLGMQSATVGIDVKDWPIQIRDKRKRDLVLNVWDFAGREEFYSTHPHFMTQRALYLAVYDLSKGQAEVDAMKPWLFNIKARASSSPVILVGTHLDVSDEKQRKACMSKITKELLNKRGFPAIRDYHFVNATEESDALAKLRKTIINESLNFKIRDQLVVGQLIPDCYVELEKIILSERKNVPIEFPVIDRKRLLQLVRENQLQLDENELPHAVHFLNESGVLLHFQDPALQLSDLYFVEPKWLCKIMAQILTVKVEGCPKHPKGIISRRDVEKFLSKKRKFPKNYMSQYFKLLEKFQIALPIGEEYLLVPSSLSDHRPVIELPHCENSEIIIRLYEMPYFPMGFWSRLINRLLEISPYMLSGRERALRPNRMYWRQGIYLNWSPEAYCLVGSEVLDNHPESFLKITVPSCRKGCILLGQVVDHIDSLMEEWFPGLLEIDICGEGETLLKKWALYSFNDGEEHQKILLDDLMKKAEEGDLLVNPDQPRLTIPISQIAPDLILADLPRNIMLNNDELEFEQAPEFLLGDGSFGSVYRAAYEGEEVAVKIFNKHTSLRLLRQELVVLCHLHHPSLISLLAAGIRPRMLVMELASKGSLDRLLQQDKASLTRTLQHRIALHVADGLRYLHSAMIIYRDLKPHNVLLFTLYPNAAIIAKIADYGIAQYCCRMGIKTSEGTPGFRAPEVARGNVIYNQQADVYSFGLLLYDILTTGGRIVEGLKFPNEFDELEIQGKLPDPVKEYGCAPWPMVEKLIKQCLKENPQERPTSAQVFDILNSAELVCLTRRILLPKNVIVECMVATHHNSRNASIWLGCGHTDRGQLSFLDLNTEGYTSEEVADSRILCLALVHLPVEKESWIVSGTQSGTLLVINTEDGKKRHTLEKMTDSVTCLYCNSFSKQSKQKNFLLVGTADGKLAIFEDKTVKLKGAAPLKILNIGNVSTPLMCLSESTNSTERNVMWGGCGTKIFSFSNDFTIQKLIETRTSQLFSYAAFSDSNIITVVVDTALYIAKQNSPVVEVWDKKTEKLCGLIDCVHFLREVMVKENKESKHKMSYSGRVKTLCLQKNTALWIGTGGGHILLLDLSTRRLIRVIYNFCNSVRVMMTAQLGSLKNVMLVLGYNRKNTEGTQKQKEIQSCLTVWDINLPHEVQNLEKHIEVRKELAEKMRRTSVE
T1 sequence (Q5S007 whole entry): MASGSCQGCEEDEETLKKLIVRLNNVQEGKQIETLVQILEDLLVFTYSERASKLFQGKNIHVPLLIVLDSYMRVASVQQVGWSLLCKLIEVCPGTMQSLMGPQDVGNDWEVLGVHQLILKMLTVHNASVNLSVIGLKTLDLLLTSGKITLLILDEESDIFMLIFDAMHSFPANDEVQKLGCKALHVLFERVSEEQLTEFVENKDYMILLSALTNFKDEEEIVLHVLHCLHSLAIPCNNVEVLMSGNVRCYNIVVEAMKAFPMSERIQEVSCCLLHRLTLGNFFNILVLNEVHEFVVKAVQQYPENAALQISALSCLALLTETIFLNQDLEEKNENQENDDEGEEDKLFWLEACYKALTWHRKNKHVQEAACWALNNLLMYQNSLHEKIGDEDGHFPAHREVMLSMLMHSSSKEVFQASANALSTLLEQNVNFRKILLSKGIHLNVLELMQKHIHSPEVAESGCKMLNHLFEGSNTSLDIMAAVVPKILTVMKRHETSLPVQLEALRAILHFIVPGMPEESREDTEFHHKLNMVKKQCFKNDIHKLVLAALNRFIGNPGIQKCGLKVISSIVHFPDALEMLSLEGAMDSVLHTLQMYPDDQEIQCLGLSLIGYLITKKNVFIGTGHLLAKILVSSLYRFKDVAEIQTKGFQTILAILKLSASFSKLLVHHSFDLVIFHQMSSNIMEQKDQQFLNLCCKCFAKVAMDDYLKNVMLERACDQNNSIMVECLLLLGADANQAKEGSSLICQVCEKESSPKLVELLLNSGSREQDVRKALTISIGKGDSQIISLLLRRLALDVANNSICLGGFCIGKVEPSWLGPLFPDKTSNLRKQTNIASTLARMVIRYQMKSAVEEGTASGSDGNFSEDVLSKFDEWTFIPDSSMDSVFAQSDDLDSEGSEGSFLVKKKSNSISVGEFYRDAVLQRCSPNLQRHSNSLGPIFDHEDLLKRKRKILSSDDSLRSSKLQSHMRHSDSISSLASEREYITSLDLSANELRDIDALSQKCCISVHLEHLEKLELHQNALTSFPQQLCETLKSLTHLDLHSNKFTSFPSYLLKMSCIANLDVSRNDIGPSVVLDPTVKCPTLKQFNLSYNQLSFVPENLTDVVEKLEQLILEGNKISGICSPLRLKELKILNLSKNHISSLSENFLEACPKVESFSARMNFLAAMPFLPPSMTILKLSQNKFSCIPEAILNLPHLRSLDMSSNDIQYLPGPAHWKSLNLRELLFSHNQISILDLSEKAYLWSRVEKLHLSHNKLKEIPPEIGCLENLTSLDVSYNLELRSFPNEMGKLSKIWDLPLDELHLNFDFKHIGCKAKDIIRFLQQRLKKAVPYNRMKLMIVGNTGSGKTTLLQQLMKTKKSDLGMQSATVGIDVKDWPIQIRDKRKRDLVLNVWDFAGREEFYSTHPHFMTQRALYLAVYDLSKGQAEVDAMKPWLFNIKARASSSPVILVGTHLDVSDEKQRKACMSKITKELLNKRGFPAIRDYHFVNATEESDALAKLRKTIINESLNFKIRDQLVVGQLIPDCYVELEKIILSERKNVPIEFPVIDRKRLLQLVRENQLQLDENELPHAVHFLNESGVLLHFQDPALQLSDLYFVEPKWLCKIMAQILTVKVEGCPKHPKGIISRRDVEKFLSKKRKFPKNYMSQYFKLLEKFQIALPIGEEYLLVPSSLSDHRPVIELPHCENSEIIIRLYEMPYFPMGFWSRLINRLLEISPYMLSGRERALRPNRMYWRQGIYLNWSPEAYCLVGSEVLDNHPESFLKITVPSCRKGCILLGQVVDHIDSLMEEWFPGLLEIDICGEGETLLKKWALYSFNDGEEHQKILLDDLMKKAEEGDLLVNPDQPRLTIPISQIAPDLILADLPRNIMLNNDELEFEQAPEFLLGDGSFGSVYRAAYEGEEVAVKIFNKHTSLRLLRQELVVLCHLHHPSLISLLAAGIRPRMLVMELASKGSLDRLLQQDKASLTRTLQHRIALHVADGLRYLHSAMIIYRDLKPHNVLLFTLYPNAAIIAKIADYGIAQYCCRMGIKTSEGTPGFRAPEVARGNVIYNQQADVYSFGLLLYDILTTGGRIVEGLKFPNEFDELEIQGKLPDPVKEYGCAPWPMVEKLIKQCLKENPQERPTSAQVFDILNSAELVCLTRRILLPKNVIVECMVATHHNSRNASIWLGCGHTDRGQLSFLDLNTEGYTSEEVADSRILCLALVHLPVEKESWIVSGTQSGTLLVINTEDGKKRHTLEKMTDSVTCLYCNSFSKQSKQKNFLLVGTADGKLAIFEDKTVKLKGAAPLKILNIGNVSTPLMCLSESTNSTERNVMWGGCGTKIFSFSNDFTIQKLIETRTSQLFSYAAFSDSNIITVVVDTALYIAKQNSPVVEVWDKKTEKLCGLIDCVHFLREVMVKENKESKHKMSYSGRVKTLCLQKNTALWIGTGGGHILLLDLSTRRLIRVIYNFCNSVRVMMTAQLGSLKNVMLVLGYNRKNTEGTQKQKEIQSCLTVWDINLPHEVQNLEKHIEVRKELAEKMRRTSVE
T2 sequence (Q5S007 whole entry): as above

Turning to `COc1cc(N2CCOCC2)ccc1Nc1ncc(F)c(Nc2ccccc2NS(C)(=O)=O)n1` [CZC-25146], the IC50 with LRRK2 (ref Ramsden et al.) is 4.76 nM; on LRRK2 phospho-Ser935 (read-out: IC50 of phosphorylation at LRRK2 Ser935 (cellular spotblot)), 61 nM; in assay [1] (read-out: IC50 (LRRKtide phosphorylation assay)), 1.78 nM.
Regarding `COc1cc(C(=O)N2CCC(N3CCN(C)CC3)CC2)ccc1Nc1ncc2c(n1)N(C)c1ccccc1C(=O)N2C` [LRRK2-IN1], the IC50 in the assay on LRRK2 (100 μM ATP in original study, ref Deng et al.) was 13 nM; in the assay with LRRK2 pS935 [2], 90 to 200 nM; in the assay on LRRK2 pS935 [3], 50 to 100 nM; on LRRK2 phospho-Ser935 (SH-SY5Y stably overexpressing 3flag-LRRK2 WT, N ≥ 5, read-out: IC50 of phosphorylation at LRRK2 Ser935 (cellular spotblot)), 239 nM; in the assay on LRRK2 pS935 [4], around 100 nM; in assay [1] (full length LRRK2, 10 μM ATP, read-out: IC50 (LRRKtide phosphorylation assay)), 3.54 nM.
For the compound `COc1cc2ncnc(N3CCN(C(=O)Nc4ccc(Oc5ccccc5)cc4)CC3)c2cc1OC` [PDGF receptor tyrosine kinase inhibitor III], the “% LRRKtide phosphorylation relative to solvent” value in assay [5] was found to be 55.86%. Also, the “Phosphorylation level relative to solvent (%) (cellular pS935 assay)” value on LRRK2 phospho-Ser935 came to 72.83%. In addition, the “Cellular pS935 (% @ 5 μM)” value on LRRK2 phospho-Ser935 (setting [6]) is 72.83%. Further, the “pIC50 in vitro (lrrktide)” value in assay [1] (setting [7]) is on record as below 5. Also, the half-maximal inhibitory concentration (IC50) in assay [1] (setting [8]) is above 10000 nM.
Turning to `O=C1Nc2ccc3ncsc3c2/C1=C/c1cnc[nH]1` [PKR inhibitor], the “% LRRKtide phosphorylation relative to solvent” value in assay [5] came out at 1.18%. The “Phosphorylation level relative to solvent (%) (cellular pS935 assay)” value on LRRK2 phospho-Ser935 was 29.00%. The “pIC50 cellular (pS935)” value against LRRK2 phospho-Ser935 (setting [9]) was determined as 5.88. For the same compound, the concentration for half-maximal inhibition (IC50) at LRRK2 phospho-Ser935 (setting [10]) came to 1310 nM; in assay [1] (setting [8]) it was 363 nM. Moreover, on LRRK2 phospho-Ser935 (setting [6]), the “Cellular pS935 (% @ 5 μM)” value was 29%. Besides, the “pIC50 in vitro (lrrktide)” value in assay [1] (setting [7]) turned out to be 6.44.
On to `CC(C)[C@H](CO)Nc1nc(Nc2cccc(Cl)c2)c2ncn(C(C)C)c2n1` [Purvalanol A], for which the “% LRRKtide phosphorylation relative to solvent” value in assay [5] turned out to be 15.64%. On LRRK2 phospho-Ser935, the “Phosphorylation level relative to solvent (%) (cellular pS935 assay)” value amounted to 121.26%. Moreover, the “Cellular pS935 (% @ 5 μM)” value on LRRK2 phospho-Ser935 (setting [6]) came out at 121.26%. Also, the IC50 in assay [1] (setting [8]) stood at 4570 nM.
`CN(C)S(=O)(=O)c1ccc2c(c1)/C(=C/c1cc3c([nH]1)CCCC3)C(=O)N2` [SU6656]: the “% LRRKtide phosphorylation relative to solvent” value in assay [5] came out at 4.57%. Further, at LRRK2 phospho-Ser935, the “Phosphorylation level relative to solvent (%) (cellular pS935 assay)” value was 14.34%. Besides, the IC50 is 423 nM at LRRK2 phospho-Ser935 (setting [10]) and 10 nM in assay [1] (setting [8]). The “Cellular pS935 (% @ 5 μM)” value at LRRK2 phospho-Ser935 (setting [6]) turned out to be 14.34%.
Regarding `COc1ccc2c(c1)/C(=C/c1cnc[nH]1)C(=O)N2` [SU9516], the “% LRRKtide phosphorylation relative to solvent” value in assay [5] turned out to be 2.99%. Moreover, the “Phosphorylation level relative to solvent (%) (cellular pS935 assay)” value on LRRK2 phospho-Ser935 is recorded as 94.62%. Moreover, the “Cellular pS935 (% @ 5 μM)” value at LRRK2 phospho-Ser935 (setting [6]) was found to be 94.62%. In addition, in assay [1] (setting [8]), the IC50 worked out at 2100 nM.
On to `CCN(CC)CCNC(=O)c1c(C)[nH]c(/C=C2\C(=O)Nc3ccc(Cl)cc32)c1C` [SU11652], for which, in assay [5], the “% LRRKtide phosphorylation relative to solvent” value turned out to be 0.79%. In addition, on LRRK2 phospho-Ser935, the “Phosphorylation level relative to solvent (%) (cellular pS935 assay)” value is 14.19%. Besides, the concentration for half-maximal inhibition (IC50) at LRRK2 phospho-Ser935 (setting [10]) turned out to be 316 nM; in assay [1] (setting [8]) it was 10.9 nM. The “Cellular pS935 (% @ 5 μM)” value on LRRK2 phospho-Ser935 (setting [6]) was determined as 14.19%.
Regarding `COc1cc2ncnc(Nc3ccc(Oc4ccccc4)cc3)c2cc1OC` [Src kinase inhibitor I], the “% LRRKtide phosphorylation relative to solvent” value in assay [5] was determined as 27.12%. Besides, on LRRK2 phospho-Ser935, the “Phosphorylation level relative to solvent (%) (cellular pS935 assay)” value was found to be 61.51%. In addition, the “Cellular pS935 (% @ 5 μM)” value on LRRK2 phospho-Ser935 (setting [6]) was 61.51%. The “pIC50 in vitro (lrrktide)” value in assay [1] (setting [7]) came to 6.03. For the same compound, the IC50 in assay [1] (setting [8]) stood at 936 nM.
On to `Cc1cc(C)c(/C=C2\C(=O)Nc3ccccc32)[nH]1` [VEGF receptor 2 kinase inhibitor III], for which the “% LRRKtide phosphorylation relative to solvent” value in assay [5] worked out at 2.19%. Also, the “Phosphorylation level relative to solvent (%) (cellular pS935 assay)” value on LRRK2 phospho-Ser935 was 45.08%. The “pIC50 cellular (pS935)” value on LRRK2 phospho-Ser935 (setting [9]) was below 5.7. The half-maximal inhibitory concentration (IC50) at LRRK2 phospho-Ser935 (setting [10]) was above 2000 nM; in assay [1] (setting [8]) it was 273 nM. In addition, at LRRK2 phospho-Ser935 (setting [6]), the “Cellular pS935 (% @ 5 μM)” value stood at 45.08%. The “pIC50 in vitro (lrrktide)” value in assay [1] (setting [7]) is 6.56.
For the compound `O=C1Nc2ccc(Br)cc2/C1=C/c1cc2c([nH]1)CCCC2` [VEGF receptor 2 kinase inhibitor II], in assay [5], the “% LRRKtide phosphorylation relative to solvent” value worked out at 4.13%. Also, the “Phosphorylation level relative to solvent (%) (cellular pS935 assay)” value on LRRK2 phospho-Ser935 is on record as 37.26%. Also, the “pIC50 cellular (pS935)” value at LRRK2 phospho-Ser935 (setting [9]) was below 5.7. Further, the results for the IC50 (on LRRK2 phospho-Ser935 (setting [10]); in assay [1] (setting [8])) were above 2000 nM and 36.3 nM, respectively. The “Cellular pS935 (% @ 5 μM)” value on LRRK2 phospho-Ser935 (setting [6]) is 37.26%. Also, the “pIC50 in vitro (lrrktide)” value in assay [1] (setting [7]) stood at 7.44.
Consider `CCOC(=O)c1c(C)[nH]c(/C=C2\C(=O)Nc3ccccc32)c1C` [VEGF receptor 2 kinase inhibitor I], for which the “% LRRKtide phosphorylation relative to solvent” value in assay [5] is 26.67%. Moreover, the “Phosphorylation level relative to solvent (%) (cellular pS935 assay)” value at LRRK2 phospho-Ser935 stood at 60.83%. For the same compound, the “Cellular pS935 (% @ 5 μM)” value on LRRK2 phospho-Ser935 (setting [6]) was determined as 60.83%. For the same compound, the “pIC50 in vitro (lrrktide)” value in assay [1] (setting [7]) is 7.61. In assay [1] (setting [8]), the IC50 was 24.6 nM.
As for BPIQ-I, in assay [5], the “% LRRKtide phosphorylation relative to solvent” value was found to be 17.30%. In addition, the “Phosphorylation level relative to solvent (%) (cellular pS935 assay)” value on LRRK2 phospho-Ser935 was found to be 88.55%. On LRRK2 phospho-Ser935 (setting [6]), the “Cellular pS935 (% @ 5 μM)” value worked out at 88.55%. For the same compound, the “pIC50 in vitro (lrrktide)” value in assay [1] (setting [7]) amounted to 5.12. Moreover, the IC50 in assay [1] (setting [8]) was 7650 nM.

These data come from PMC4042160, “In silico, in vitro and cellular analysis with a kinome-wide inhibitor panel correlates cellular LRRK2 dephosphorylation to inhibitor activity on LRRK2” (Frontiers in Molecular Neuroscience, 2014).
